Measured values reported in patent US10501451B2, “Selective NR2B antagonists” (BRISTOL-MYERS SQUIBB COMPANY, priority 2015, dated 2019).
Like-named read-outs stand apart in the source and are kept apart here.

Key:
hERG channels = hERG channels (Homo sapiens (Human), UniProt Q12809); test: hERG electrophysiology assay (patch clamp); assay type: cell-based; conditions: HEK 293 cells stably expressing hERG channels, tail current
Method: hERG Electrophysiology Assay. The experimental compounds were assessed for hERG activity on HEK 293 cells stably expressing hERG channels using patch clamp technique. Coverslips plated with hERG expressing cells were placed in the experimental chamber and were perfused with a solution composed of (in mM): 140 NaCl, 4 KCl, 1.8 CaCl2, 1 MgCl2, 10 Glucose, 10 HEPES (pH 7.4, NaOH) at room temperature. Borosilicate patch pipettes had tip resistances of 2-4 Mohms when filled with an internal solution containing: 130 KCl, 1 MgCl2, 1 CaCl2, 10 EGTA, 10 HEPES, 5 ATP-K2 (pH 7.2, KOH). The cells were clamped at −80 mV in whole cell configuration using an Axopatch 200B (Axon instruments, Union City, Calif.) patch clamp amplifier controlled by pClamp (Axon instruments) software. […] First, tail currents were recorded in presence of extracellular solution alone (control) and subsequently, in extracellular solution containing increasing compound concentrations. […] The percentage inhibition at each concentration was calculated as reduction in peak tail current with respect to the peak tail current recorded in the presence of control solution. […]

[1] = molecular target: brain-resident NR2B-subtype receptors (Mus musculus (Mouse), UniProt P35438+Q01097); test: Ex vivo occupancy assay; assay type: in vivo; conditions: iv, mouse
Sequence of brain-resident NR2B-subtype receptors (Q01097 27-1482, other chains not shown): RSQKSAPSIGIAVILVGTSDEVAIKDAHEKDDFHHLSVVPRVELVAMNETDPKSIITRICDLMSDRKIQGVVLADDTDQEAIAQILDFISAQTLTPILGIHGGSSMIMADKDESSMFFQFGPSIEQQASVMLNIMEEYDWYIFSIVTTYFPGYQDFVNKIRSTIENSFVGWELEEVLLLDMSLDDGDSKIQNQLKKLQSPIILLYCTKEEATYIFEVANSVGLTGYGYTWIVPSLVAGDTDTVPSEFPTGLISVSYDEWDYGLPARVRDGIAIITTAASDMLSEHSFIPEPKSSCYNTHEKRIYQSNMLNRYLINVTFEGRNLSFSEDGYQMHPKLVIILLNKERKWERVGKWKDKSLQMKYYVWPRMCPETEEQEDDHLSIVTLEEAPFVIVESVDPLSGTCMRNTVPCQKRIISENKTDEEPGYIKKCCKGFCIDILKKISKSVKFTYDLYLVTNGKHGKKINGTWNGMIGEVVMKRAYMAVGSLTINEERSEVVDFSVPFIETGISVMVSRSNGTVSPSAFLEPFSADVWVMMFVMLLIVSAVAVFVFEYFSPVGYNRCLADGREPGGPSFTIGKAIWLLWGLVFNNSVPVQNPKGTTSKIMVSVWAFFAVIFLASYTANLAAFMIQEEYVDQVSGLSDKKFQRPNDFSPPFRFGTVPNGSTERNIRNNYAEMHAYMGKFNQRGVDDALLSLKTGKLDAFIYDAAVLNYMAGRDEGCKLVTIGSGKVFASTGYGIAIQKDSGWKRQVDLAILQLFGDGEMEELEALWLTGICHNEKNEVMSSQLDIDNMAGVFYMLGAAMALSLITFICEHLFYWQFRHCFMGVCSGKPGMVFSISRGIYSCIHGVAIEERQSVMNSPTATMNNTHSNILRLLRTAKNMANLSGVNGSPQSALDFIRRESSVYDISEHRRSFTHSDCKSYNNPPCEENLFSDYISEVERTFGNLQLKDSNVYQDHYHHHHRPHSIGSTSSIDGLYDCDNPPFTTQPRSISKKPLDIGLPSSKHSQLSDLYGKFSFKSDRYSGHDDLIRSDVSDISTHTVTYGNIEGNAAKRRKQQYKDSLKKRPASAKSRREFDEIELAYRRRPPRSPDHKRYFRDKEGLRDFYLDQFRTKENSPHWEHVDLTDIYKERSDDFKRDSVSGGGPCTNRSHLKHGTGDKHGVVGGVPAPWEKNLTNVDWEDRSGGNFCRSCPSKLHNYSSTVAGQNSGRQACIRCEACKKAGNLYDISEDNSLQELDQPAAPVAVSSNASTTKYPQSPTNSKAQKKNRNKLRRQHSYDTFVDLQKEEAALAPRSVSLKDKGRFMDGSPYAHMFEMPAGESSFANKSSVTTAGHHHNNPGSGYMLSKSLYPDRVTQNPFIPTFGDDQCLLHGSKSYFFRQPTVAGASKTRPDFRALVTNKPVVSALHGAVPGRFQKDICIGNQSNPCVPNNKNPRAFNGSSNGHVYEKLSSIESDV
Method: Ex Vivo Occupancy Assay. […] 7-9 weeks old male CD-1 mice were dosed intravenously in a vehicle consisting of 10% dimethylacetamide, 40% PEG-400, 30% hydroxypropyl betacyclodextrin, and 30% water with experimental compounds and the forebrains were harvested 15 minutes post-dosing by decapitation. The brain samples were immediately snap-frozen and stored at −80° C. On the following day, the dosed brain samples were thawed on ice for 15-20 minutes followed by homogenization using Polytron for 10 seconds in cold homogenization buffer composed of 50 mM KH2PO4 (pH adjusted to 7.4 with KOH), 1 mM EDTA, 0.005% Triton X 100 and protease inhibitor cocktail (Sigma Aldrich). The crude homogenates were further homogenized using a Dounce homogenizer and the homogenized membrane aliquots from all animals were flash-frozen and stored at −80° C. until further use. The whole homogenization process was performed on ice. For determining occupancy, the membrane homogenates were first thawed on ice and then needle-homogenized using a 25 gauge needle. The homogenized membrane (6.4 mg/ml) was added to a 96-well plate followed by addition of ^3H Ro 25-6981 (6 nM). The reaction mixture was incubated for 5 minutes on a shaker at 4° C. and then harvested onto GF/B filter plates (treated with 0.5% PEI for 1 hr at room temperature). The filter plates were dried at 50° C. for 20 mins, incubated with microscint 20 for 10 minutes and read on TopCount (Perkin Elmer). Each dose or compound group consisted of 4-5 animals. The control group of animals was dosed with vehicle alone. Membrane from each animal was added in triplicates to the assay plate. Non-specific binding was determined using 10 μM Ro 25-6981 added to the wells containing membrane homogenates from vehicle-dosed animals. Specific counts/minute was converted to % occupancy at each dose of a compound for each animal using the following equation: […]
Drug levels were determined by mass spectroscopy in the usual manner. Drug levels in the blood plasma were 572 nM in at this dose, and drug levels in the homogenized brain tissue were 863 nM.

[2] = molecular target: NR2B-subtype NMDA receptors (Rattus norvegicus (Rat), UniProt P35439+Q00960); test: Radioligand binding assay (3H Ro 25-6981 competition, rat forebrain membranes); conditions: 3H Ro 25-6981 (4 nM)
Sequence of NR2B-subtype NMDA receptors (Q00960 27-1482, other chains not shown): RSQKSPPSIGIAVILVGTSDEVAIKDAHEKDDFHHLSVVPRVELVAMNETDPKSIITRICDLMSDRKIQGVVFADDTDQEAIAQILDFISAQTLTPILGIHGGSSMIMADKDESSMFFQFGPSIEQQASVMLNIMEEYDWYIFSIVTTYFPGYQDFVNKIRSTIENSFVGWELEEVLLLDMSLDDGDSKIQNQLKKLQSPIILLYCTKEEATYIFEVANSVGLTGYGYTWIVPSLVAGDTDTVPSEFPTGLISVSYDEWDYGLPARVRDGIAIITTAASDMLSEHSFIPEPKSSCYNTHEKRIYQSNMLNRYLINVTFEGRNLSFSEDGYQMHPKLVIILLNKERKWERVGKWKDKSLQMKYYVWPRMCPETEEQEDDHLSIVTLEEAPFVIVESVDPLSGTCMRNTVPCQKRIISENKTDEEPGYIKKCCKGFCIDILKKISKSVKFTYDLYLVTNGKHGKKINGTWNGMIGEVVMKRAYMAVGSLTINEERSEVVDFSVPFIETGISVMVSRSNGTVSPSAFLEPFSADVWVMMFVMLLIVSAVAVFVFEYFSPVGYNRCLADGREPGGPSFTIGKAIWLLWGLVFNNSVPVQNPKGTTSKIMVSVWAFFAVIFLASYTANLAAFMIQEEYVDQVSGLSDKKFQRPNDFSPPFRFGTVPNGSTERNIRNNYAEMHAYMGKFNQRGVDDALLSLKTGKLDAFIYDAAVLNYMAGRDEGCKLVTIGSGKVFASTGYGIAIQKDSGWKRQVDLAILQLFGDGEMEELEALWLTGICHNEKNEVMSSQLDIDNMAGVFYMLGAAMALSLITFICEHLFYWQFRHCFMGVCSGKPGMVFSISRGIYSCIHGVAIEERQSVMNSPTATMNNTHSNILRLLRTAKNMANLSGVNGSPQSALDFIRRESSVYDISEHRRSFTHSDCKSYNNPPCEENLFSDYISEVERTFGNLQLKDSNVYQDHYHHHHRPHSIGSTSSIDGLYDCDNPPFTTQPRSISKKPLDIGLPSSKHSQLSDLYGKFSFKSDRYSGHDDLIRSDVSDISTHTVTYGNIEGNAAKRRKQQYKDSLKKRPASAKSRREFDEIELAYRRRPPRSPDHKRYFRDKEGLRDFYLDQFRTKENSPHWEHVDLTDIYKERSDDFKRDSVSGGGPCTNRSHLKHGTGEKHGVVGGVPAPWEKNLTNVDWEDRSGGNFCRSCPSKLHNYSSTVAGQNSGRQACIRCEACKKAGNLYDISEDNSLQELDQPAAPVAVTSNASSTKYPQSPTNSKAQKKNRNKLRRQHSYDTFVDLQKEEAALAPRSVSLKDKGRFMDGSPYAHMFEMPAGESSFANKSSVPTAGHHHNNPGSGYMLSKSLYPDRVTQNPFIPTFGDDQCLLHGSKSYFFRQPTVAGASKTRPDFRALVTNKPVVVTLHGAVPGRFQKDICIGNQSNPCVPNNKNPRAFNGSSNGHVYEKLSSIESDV
Method: Radioligand Binding Assay. Binding experiments to determine binding to NR2B-subtype NMDA receptors were performed on forebrains of 8-10 weeks old male Sprague Dawley rats (Harlan, Netherlands) using ^3H Ro 25-6981 (Mutel V; Buchy D; Klingelschmidt A; Messer J; Bleuel Z; Kemp J A; Richards J G. Journal of Neurochemistry, 1998, 70(5):2147-2155. Rats were decapitated without anesthesia using a Guillotine (approved by animal ethics committee) and the harvested brains were snap-frozen and stored at −80° C. for 3-6 months for membrane preparation.
For membrane preparation, rat forebrains were thawed on ice for 20 minutes in homogenization buffer composed of 50 mM KH2PO4 (pH adjusted to 7.4 with KOH), 1 mM EDTA, 0.005% Triton X 100 and protease inhibitor cocktail (Sigma Aldrich). Thawed brains were homogenized using a Dounce homogenizer and centrifuged at 48000×g for 20 min. The pellet was resuspended in cold buffer and homogenized again using a Dounce homogenizer. Subsequently, the homogenate was aliquoted, snap-frozen and stored at −80° C. for not more than 3-4 months.
To perform the competition binding assay, thawed membrane homogenate was added to each well of a 96-well plate (20 μg/well). The experimental compounds were serially diluted in 100% DMSO and added to each row of the assay plate to achieve desired compound concentrations, keeping the DMSO concentration in the assay plate at 1.33% of the final reaction volume. Next, ^3H Ro 25-6981 (4 nM) was added to the assay plate. After incubation for 1 hr at room temperature, the membrane bound radioligand was harvested on to GF/B filter plates (treated with 0.5% PEI for 1 hr at room temperature). The filter plates were dried at 50° C. for 20 mins, incubated with microscint 20 for 10 minutes and finally, the counts were read on TopCount (Perkin Elmer).

Sequence of hERG channels (Q12809 whole entry, the tested form may be a part): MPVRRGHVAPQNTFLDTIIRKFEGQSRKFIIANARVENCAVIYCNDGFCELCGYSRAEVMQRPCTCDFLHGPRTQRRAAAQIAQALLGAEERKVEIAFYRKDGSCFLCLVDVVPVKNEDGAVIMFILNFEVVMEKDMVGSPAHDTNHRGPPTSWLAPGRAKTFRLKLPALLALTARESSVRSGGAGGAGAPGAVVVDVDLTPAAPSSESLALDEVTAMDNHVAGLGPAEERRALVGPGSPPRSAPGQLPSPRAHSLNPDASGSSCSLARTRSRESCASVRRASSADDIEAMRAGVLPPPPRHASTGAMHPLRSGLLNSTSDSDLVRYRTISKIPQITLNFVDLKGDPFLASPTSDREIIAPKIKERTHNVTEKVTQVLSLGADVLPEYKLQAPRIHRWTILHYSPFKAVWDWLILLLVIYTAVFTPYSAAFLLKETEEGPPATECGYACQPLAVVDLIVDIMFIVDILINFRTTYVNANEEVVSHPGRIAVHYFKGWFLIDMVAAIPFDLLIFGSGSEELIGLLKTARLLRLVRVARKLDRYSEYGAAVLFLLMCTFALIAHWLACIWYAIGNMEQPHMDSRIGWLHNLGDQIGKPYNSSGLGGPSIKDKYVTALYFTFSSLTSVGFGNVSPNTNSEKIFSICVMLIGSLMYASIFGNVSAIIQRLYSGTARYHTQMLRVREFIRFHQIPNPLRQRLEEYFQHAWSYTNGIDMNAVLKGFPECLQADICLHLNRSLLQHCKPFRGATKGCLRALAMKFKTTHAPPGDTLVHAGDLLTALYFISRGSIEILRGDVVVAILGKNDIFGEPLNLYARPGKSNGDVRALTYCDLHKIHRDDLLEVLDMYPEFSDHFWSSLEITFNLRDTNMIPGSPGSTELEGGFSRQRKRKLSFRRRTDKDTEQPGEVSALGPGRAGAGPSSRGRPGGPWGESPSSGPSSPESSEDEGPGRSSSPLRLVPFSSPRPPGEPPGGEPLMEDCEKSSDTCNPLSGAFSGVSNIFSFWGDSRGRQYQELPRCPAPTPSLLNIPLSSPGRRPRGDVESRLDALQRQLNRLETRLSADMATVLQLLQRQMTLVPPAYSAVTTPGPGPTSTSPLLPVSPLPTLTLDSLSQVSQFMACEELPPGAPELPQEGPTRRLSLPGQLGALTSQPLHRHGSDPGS

## Cc1ccc(CN2OCC(N3CCN(c4ccc(O)cn4)CC3)C2=O)cc1 (single isomer, unassigned) [Example 10, P-1, 4-(4-(5-hydroxypyridin-2-yl)piperazin-1-yl)-2-(4-methylbenzyl)isoxazolidin-3-one]
hERG channels
  IC50: 30000 nM
[1]; 1 mg/Kg i.v., forced swim test animals
  receptor occupancy at 1 mg/kg: 69%
[1]; 3 mg/Kg i.v., forebrain harvested 15 minutes post-dosing
  receptor occupancy at 3 mg/kg: 94%
[2]; listed as 10, P-1, read-out: NR2B Binding Ki
  Ki: 3.2 nM
[2]; read-out: binding Ki
  Ki: 3.2 nM
